Measurements from patent US20030032003A1, “IN VIVO SELECTION” (priority 2000, published 2003).

Key:
Neo −/− mice = experiment: Acute toxicity of G418; format: in vivo, mouse; settings: 10 days
Description: (§1) As in Example 1, applicants characterized the tissue specific expression of neoR mRNA and furthermore, investigated acute tissue specific toxicities of G418 in neo^R+/+ mice. The neoR mRNA reached highest levels in testis, intermediate in brain, kidney and liver. Low levels were detected in heart skeletal muscle and lungs and almost undetectable low levels in spleen. For acute toxicity determination the animals were treated with a single dose i.p. at concentrations starting at 47 mg/kg and increased thereafter by approximately 50% for each consecutive dose. The neoR expression in transgenic animals caused 10-fold increase of the approximate lethal dose of G418 (Table 4).

neo +/+ transgenic mice = experiment: Acute toxicity of G418; format: in vivo, mouse; settings: for survival / body weight, percentage of the body weight before the experiment: Neo +/+, 10 days
Description: as §1

neo^R mice = experiment: Biochemical analysis of mouse serum after G418; format: in vivo; settings: 335 mg/kg single i.p., serum 48 hrs after treatment
Description: (§2) BUN and CRE levels are diagnostic markers of kidney damage. […] In these transgenic animals G418 at the highest dose (1140 mg/kg) caused immediate toxicity resulting in death due to breath failure within 10 minutes after injection.

wildtype mice = experiment: Biochemical analysis of mouse serum after G418; format: in vivo; settings: 335 mg/kg single i.p., serum 48 hrs after treatment
Description: as §2

CN[C@@H]1[C@@H](O)[C@@H](O[C@@H]2[C@@H](O)[C@H](O[C@H]3O[C@H]([C@@H](C)O)[C@@H](O)[C@H](O)[C@H]3N)[C@@H](N)C[C@H]2N)OC[C@]1(C)O [G418]
body weight, percentage of the body weight before the experiment (Neo −/− mice; 47 mg/kg single i.p.): 101 ± 1%
survival (Neo −/− mice; 47 mg/kg single i.p.): surv (surv, animals survived the 10 day period)
body weight, percentage of the body weight before the experiment (Neo −/− mice; 68 mg/kg single i.p.): 104 ± 4%
survival (Neo −/− mice; 68 mg/kg single i.p.): surv (surv, animals survived the 10 day period)
body weight, percentage of the body weight before the experiment (Neo −/− mice; 103 mg/kg single i.p.): 73 ± 6%
survival (Neo −/− mice; 103 mg/kg single i.p.): 8 days
body weight, percentage of the body weight before the experiment (Neo −/− mice; 153 mg/kg single i.p.): 73 ± 5%
survival (Neo −/− mice; 153 mg/kg single i.p.): 8 days
body weight, percentage of the body weight before the experiment (Neo −/− mice; 230 mg/kg single i.p.): 85 ± 2%
survival (Neo −/− mice; 230 mg/kg single i.p.): 4 days
body weight, percentage of the body weight before the experiment (Neo −/− mice; 345 mg/kg single i.p.): 97 ± 1%
survival (Neo −/− mice; 345 mg/kg single i.p.): 1 days
body weight, percentage of the body weight before the experiment (Neo −/− mice; 480 mg/kg single i.p.): 99 ± 1%
survival (Neo −/− mice; 480 mg/kg single i.p.): 1 days
body weight, percentage of the body weight before the experiment (Neo −/− mice; 778 mg/kg single i.p.): 100 ± 2%
survival (Neo −/− mice; 778 mg/kg single i.p.): 1 days
survival (neo +/+ transgenic mice; 47 mg/kg single i.p.): surv (surv, animals survived the 10 day period)
body weight, percentage of the body weight before the experiment (neo +/+ transgenic mice; 68 mg/kg single i.p.): 100 ± 1%
survival (neo +/+ transgenic mice; 68 mg/kg single i.p.): surv (surv, animals survived the 10 day period)
survival (neo +/+ transgenic mice; 103 mg/kg single i.p.): surv (surv, animals survived the 10 day period)
body weight, percentage of the body weight before the experiment (neo +/+ transgenic mice; 153 mg/kg single i.p.): 102 ± 3%
survival (neo +/+ transgenic mice; 153 mg/kg single i.p.): surv (surv, animals survived the 10 day period)
body weight, percentage of the body weight before the experiment (neo +/+ transgenic mice; 230 mg/kg single i.p.): 100 ± 2%
survival (neo +/+ transgenic mice; 230 mg/kg single i.p.): surv (surv, animals survived the 10 day period)
body weight, percentage of the body weight before the experiment (neo +/+ transgenic mice; 345 mg/kg single i.p.): 98 ± 4%
survival (neo +/+ transgenic mice; 345 mg/kg single i.p.): surv (surv, animals survived the 10 day period)
body weight, percentage of the body weight before the experiment (neo +/+ transgenic mice; 480 mg/kg single i.p.): 100 ± 1%
survival (neo +/+ transgenic mice; 480 mg/kg single i.p.): surv (surv, animals survived the 10 day period)
body weight, percentage of the body weight before the experiment (neo +/+ transgenic mice; 778 mg/kg single i.p.): 101 ± 1%
survival (neo +/+ transgenic mice; 778 mg/kg single i.p.): surv (surv, animals survived the 10 day period)
body weight, percentage of the body weight before the experiment (neo +/+ transgenic mice; 1140 mg/kg single i.p.): 100 ± 1%
survival (neo +/+ transgenic mice; 1140 mg/kg single i.p.): 1 days
increase of the approximate lethal dose (neo +/+ transgenic mice; neoR expression in transgenic animals vs wild type): 10 fold
time to death due to breath failure after injection (neo +/+ transgenic mice; neo^R transgenic animals, highest dose 1140 mg/kg): ≤ 10 min
ALT (neo^R mice): 54.3 ± 14.4 u/l
BUN (neo^R mice): 22.3 ± 0.9 mg/dL
CRE (neo^R mice): 0.23 ± 0.05 mg/dL
ALT (wildtype mice): 102.0 ± 9.4 u/l
BUN (wildtype mice): 96.0 ± 14.2 mg/dL
CRE (wildtype mice): 0.67 ± 0.05 mg/dL
